Each molecule was assayed on fibrosarcoma cell line HT1080 (assay: Ferroptosis screening model (MTT method), Erastin-induced ferroptosis). Conditions: HT1080, ferroptosis inducer Erastin, 72 h, average of three tests, read-out: EC50.
Format: cell-based, human
Method: The screening model for ferroptosis mainly used MTT method. First, the fibrosarcoma cell line HT1080 was cultured in a dish, and the cells in the logarithmic growth phase were inoculated into a 96-well plate in a certain number (3000-10000 cells/well), 100 μL per well, and then the plate was put in an 5% CO2 incubator at 37° C., to allow the cells to adhere. After 24 h, 100 μL compound solution at a certain concentration prepared in the designated medium and ferroptosis inducer Erastin (with a final concentration of […]) were added, setting 3 replicate wells for each compound to ensure the accuracy of the results, and a negative control group, a positive control group (Fer-15 μM), a blank control group and a solvent control group were included. After addition of drugs, the plate was placed in an incubator and cultivated for 72 h. On the day of MTT experiment, MTT test solution (5 mg/mL MTT solution dissolved in physiological saline, and stored in the dark at 4° C.) was pre-prepared and 20 μL MTT solution was added to each well, then the plate was put in an incubator and continued to incubate for 2-4 h. After that, 50 μL of 20% SDS solution (dissolved in MiliiQ water, added with 1% concentrated hydrochloric acid) was added to each well and kept in an incubator overnight. On the next day, the absorbance at 570 nm was measured with a microplate reader, to calculate the inhibition rate of drugs on ferroptosis. Generally, the absorbance value of the control group should be in the range of 0.8-1.2 as a normal value.
GraphPadPrism5 software was used to fit the change curve of inhibition rate and calculate the EC50.

EC50 | SMILES
10 nM | CC(c1ccccc1)c1ccc2c(c1)Nc1ccccc1S2 (centres unmarked) [Compound B1, 2-(1-phenylethyl)-10H-phenothiazine]
680 nM | C=C(c1ccc(N2CCOCC2)cc1)c1ccc2c(c1)Nc1ccccc1S2 [Compound B15, 4-(4-(1-(10H-phenothiazin-2-yl)ethenyl)phenyl)morpholine]

The next lines start with the molecule.

SMILES | EC50
CC(c1ccc2c(c1)Nc1ccccc1S2)c1c2ccccc2cc2ccccc12 (centres unmarked) [Compound A71, 2-(1-(anthrathen-9-yl)ethyl)-10H-phenothiazine] | 17 nM
C=C(c1ccc(N2CCOCC2)cc1)c1ccc2c(c1)Nc1ccccc1S2 [Compound B14, 4-(4-(1-(10H-phenothiazin-2-yl)ethenyl)phenyl)morpholine] | 39 nM

Same assay, conditions: Homo sapiens, HT-1080, 72 h, HT1080, ferroptosis inducer Erastin, 72 h, average of three tests, read-out: EC50

EC50 | SMILES
22 nM | COc1cc(C(C)c2ccc3c(c2)Nc2ccccc2S3)ccc1F (centres unmarked) [Compound A51, 2-(1-(4-fluoro-3-methoxylphenyl)ethyl)-10H-phenothiazine]
19 nM | CC(c1cc(F)cc(F)c1)c1ccc2c(c1)Nc1ccccc1S2 (centres unmarked) [Compound A56, 2-(1-(3,5-difluorophenyl)ethyl)-10H-phenothiazine]
18 nM | CC(c1cc(Cl)cc(Cl)c1)c1ccc2c(c1)Nc1ccccc1S2 (centres unmarked) [Compound A57, 2-(1-(3,5-dichlorophenyl)ethyl)-10H-phenothiazine]
20 nM | Cc1cc(C)cc(C(C)c2ccc3c(c2)Nc2ccccc2S3)c1 (centres unmarked) [Compound A59, 2-(1-(3,5-dimethylphenyl)ethyl)-10H-phenothiazine]
12 nM | COc1cc(OC)cc(C(C)c2ccc3c(c2)Nc2ccccc2S3)c1 (centres unmarked) [Compound A60, 2-(1-(3,5-dimethoxylphenyl)ethyl)-10H-phenothiazine]
24 nM | Cc1cc(Cl)cc(C(C)c2ccc3c(c2)Nc2ccccc2S3)c1 (centres unmarked) [Compound A62, 2-(1-(3-chloro-5-methylphenyl)ethyl)-10H-phenothiazine]
31 nM | COC(=O)c1cc(F)cc(C(C)c2ccc3c(c2)Nc2ccccc2S3)c1 (centres unmarked) [Compound A63, 3-(1-(10H-phenothiazin-2-yl)ethyl)-5-fluorobenzoic acid methyl ester]
64 nM | CC(c1cc(F)cc(OCc2ccccc2)c1)c1ccc2c(c1)Nc1ccccc1S2 (centres unmarked) [Compound A64, 2-(1-(3-(benzyloxyl)-5-fluorophenyl)ethyl)-10H-phenothiazine]
8 nM | CC(c1ccc2c(c1)Nc1ccccc1S2)c1ccc2c(c1)OCCO2 (centres unmarked) [Compound A65, 2-(1-(2,3-dihydrobenzo[b][1,4]dioxa-6-yl)ethyl)-10H-phenothiazine]
5 nM | CC(c1ccc2c(c1)Nc1ccccc1S2)c1cccc2c1COCO2 (centres unmarked) [Compound A66, 2-(1-(benzo[d][1,3]dioxin-5-yl)ethyl)-10H-phenothiazine]
18 nM | CCOc1ccc2cc(C(C)c3ccc4c(c3)Nc3ccccc3S4)ccc2c1 (centres unmarked) [Compound A70, 2-(1-(6-ethoxylnaphthalen-2-yl)ethyl)-10H-phenothiazine]
14 nM | CC(c1ccc2c(c1)CCO2)c1ccc2c(c1)Nc1ccccc1S2 (centres unmarked) [Compound A72, 2-(1-(2,3-dihydrobenzofuran-5-yl)ethyl)-10H-phenothiazine]
5 nM | CC(c1cncc(C#N)c1)c1ccc2c(c1)Nc1ccccc1S2 (centres unmarked) [Compound A73, 5-(1-(10H-phenothiazin-2-yl)ethyl)nicotinonitrile]
5 nM | CC(c1ccc2c(c1)Nc1ccccc1S2)C1CCCCC1 (centres unmarked) [Compound A76, 2-(1-cyclohexylethyl)-10H-phenothiazine]
10 nM | C=C(c1ccc(NC(N)=O)cc1)c1ccc2c(c1)Nc1ccccc1S2 [Compound B10, N-(4-(1-(10H-phenothiazin-2-yl)ethenyl)phenyl)urea]
29 nM | C=C(c1ccc2c(c1)Nc1ccccc1S2)c1ccccc1N [Compound B16, 2-(1-(10H-phenothiazin-2-yl)ethenyl)phenylamine]
13 nM | C=C(c1cccc([N+](=O)[O-])c1)c1ccc2c(c1)Nc1ccccc1S2 [Compound B19, 2-(1-(3-nitrophenyl)ethenyl)-10H-phenothiazine]
10 nM | C=C(c1cccc(S(N)(=O)=O)c1)c1ccc2c(c1)Nc1ccccc1S2 [Compound B20, 3-(1-(10H-phenothiazin-2-yl)ethenyl)benzenesulfonamide]

The next lines start with the molecule.

SMILES | EC50
COc1cc(C(C)c2ccc3c(c2)Nc2ccccc2S3)ccc1Cl (centres unmarked) [Compound A50, 2-(1-(4-chloro-3-methoxylphenyl)ethyl)-10H-phenothiazine] | 25 nM
Cc1ccc(C(C)c2ccc3c(c2)Nc2ccccc2S3)cc1[N+](=O)[O-] (centres unmarked) [Compound A52, 2-(1-(4-methyl-3-nitrophenyl)ethyl)-10H-phenothiazine] | 13 nM
COC(=O)c1ccc(C(C)c2ccc3c(c2)Nc2ccccc2S3)cc1Cl (centres unmarked) [Compound A53, 4-(1-(10H-phenothiazin-2-yl)ethyl)-2-chlorobenzoic acid methyl ester] | 20 nM
Cc1cc(C(C)c2ccc3c(c2)Nc2ccccc2S3)ccc1OCc1ccccc1 (centres unmarked) [Compound A54, 2-(1-(4-(benzyloxyl)-3-methylphenyl)ethyl)-10H-phenothiazine] | 68 nM
CC(c1ccc2c(c1)Nc1ccccc1S2)c1ccc(F)c(OCc2ccccc2)c1 (centres unmarked) [Compound A55, 2-(1-(3-(benzyloxyl)-4-fluorophenyl)ethyl)-10H-phenothiazine] | 59 nM
CC(c1cc(C(F)(F)F)cc(C(F)(F)F)c1)c1ccc2c(c1)Nc1ccccc1S2 (centres unmarked) [Compound A58, 2-(1-(3,5-bis(trifluoromethyl)phenyl)ethyl)-10H-phenothiazine] | 19 nM
CCOc1cc(F)cc(C(C)c2ccc3c(c2)Nc2ccccc2S3)c1 (centres unmarked) [Compound A61, 2-(1-(3-ethoxyl-5-fluorophenyl)ethyl)-10H-phenothiazine] | 34 nM
CC(c1ccc2c(c1)Nc1ccccc1S2)c1cc2ccccc2o1 (centres unmarked) [Compound A67, 2-(1-(benzofuran-2-yl)ethyl)-10H-phenothiazine] | 16 nM
CC(c1ccc2c(c1)Nc1ccccc1S2)c1ccc2ccccc2c1 (centres unmarked) [Compound A68, 2-(1-(naphthalen-2-yl)ethyl)-10H-phenothiazine] | 5 nM
COc1ccc2cc(C(C)c3ccc4c(c3)Nc3ccccc3S4)ccc2c1 (centres unmarked) [Compound A69, 2-(1-(6-methoxylnaphthalen-2-yl)ethyl)-10H-phenothiazine] | 3 nM
Cc1cc(C(C)c2ccc3c(c2)Nc2ccccc2S3)ccn1 (centres unmarked) [Compound A74, 2-(1-(2-methylpyridin-4-yl)ethyl)-10H-phenothiazine] | 3 nM
CCOc1ccc(C(C)c2ccc3c(c2)Nc2ccccc2S3)cn1 (centres unmarked) [Compound A75, 2-(1-(6-ethoxylpyridin-3-yl)ethyl)-10H-phenothiazine] | 23 nM
C=C(c1ccc(C(=O)OC)cc1)c1ccc2c(c1)Nc1ccccc1S2 [Compound B2, methyl 4-(1-(10H-phenothiazin-2-yl)ethenyl)benzoic acid] | 32 nM
C=C(c1ccc(C(F)(F)F)cc1)c1ccc2c(c1)Nc1ccccc1S2 [Compound B3, 2-(1-(4-(trifluoromethyl)phenyl)ethenyl)-10H-phenothiazine] | 11 nM
C=C(c1ccc(CC)cc1)c1ccc2c(c1)Nc1ccccc1S2 [Compound B4, 2-(1-(4-ethylphenyl)ethenyl)-10H-phenothiazine] | 23 nM
C=C(c1ccc(OC(F)(F)F)cc1)c1ccc2c(c1)Nc1ccccc1S2 [Compound B5, 2-(1-(4-trifluoromethoxylphenyl)ethenyl)-10H-phenothiazine] | 80 nM
C=C(c1ccc(C)cc1)c1ccc2c(c1)Nc1ccccc1S2 [Compound B6, 2-(1-(p-methylphenyl)ethenyl)-10H-phenothiazine] | 45 nM
C=C(c1ccc(CCCC)cc1)c1ccc2c(c1)Nc1ccccc1S2 [Compound B7, 2-(1-(4-butylphenyl)ethenyl)-10H-phenothiazine] | 29 nM
C=C(c1ccc(C(C)C)cc1)c1ccc2c(c1)Nc1ccccc1S2 [Compound B8, 2-(1-(4-isopropylphenyl)ethenyl)-10H-phenothiazine] | 40 nM
C=C(c1ccc(NC(C)=O)cc1)c1ccc2c(c1)Nc1ccccc1S2 [Compound B9, N-(4-(1-(10H-phenothiazin-2-yl)ethenyl)phenyl)acetylamine] | 3 nM
C=C(c1ccc(C2CCCCC2)cc1)c1ccc2c(c1)Nc1ccccc1S2 [Compound B11, 2-(1-(4-cyclohexylphenyl)ethenyl)-10H-phenothiazine] | 39 nM
C=C(c1ccc(CC(C)C)cc1)c1ccc2c(c1)Nc1ccccc1S2 [Compound B12, 2-(1-(4-isobutylphenyl)ethenyl)-10H-phenothiazine] | 40 nM
C=C(c1ccc(C=O)cc1)c1ccc2c(c1)Nc1ccccc1S2 [Compound B13, 4-(1-(10H-phenothiazin-2-yl)ethenyl)benzaldehyde] | 30 nM
C=C(c1cccc(N)c1)c1ccc2c(c1)Nc1ccccc1S2 [Compound B17, 3-(1-(10H-phenothiazin-2-yl)ethenyl)phenylamine] | 17 nM
C=C(c1cccc(O)c1)c1ccc2c(c1)Nc1ccccc1S2 [Compound B18, 3-(1-(10H-phenothiazin-2-yl)ethenyl)phenol] | 40 nM

Reference: patent US11440909B2, “10H-phenothiazine ferroptosis inhibitor as well as the preparative method and the use thereof” (CHENGDU HENGHAO INVESTMENT CO. LIMITED, priority 2018, dated 2022)
